# Key:
# Format in all cases: in vivo
# [1] = system: Adult Japanese Pine Sawyer; experiment: Insecticidal activity test on Japanese pine sawyer (sprayed pine feed trees)
# Text: 1. Insecticidal Activity Test on Japanese Pine Sawyer
# After uniformly spraying pine feed trees with spraying solutions at prescribed concentrations using a sprayer, adult Japanese pine sawyers were used in testing to investigate the progress of their mortality and degree of infestation.
# Pine Caterpillar Larva = experiment: Insecticidal activity test on pine caterpillar larva (spray)
# Text: 2. Insecticidal Activity Test on Pine Caterpillar Larva
# The mortality of pine caterpillar larva was investigated after uniformly spraying pine feed trees and pine caterpillar larva with spraying solutions at prescribed concentrations using a sprayer.
# Fall Webworm Larva = experiment: Insecticidal activity test on fall webworm larva (spray)
# Text: 3. Insecticidal Activity Test on Fall Webworm Larva
# The progress of the mortality of fall webworm larva was investigated after uniformly spraying feed trees (cherry) and fall webworm larva with spraying solutions at prescribed concentrations using a sprayer.
SMILES,Average infested area (cm2) ([1]; spraying solution 5 ppm),Mortality (%) After 1 day ([1]; spraying solution 5 ppm),Mortality (%) After 3 days ([1]; spraying solution 5 ppm),Mortality (%) After 7 days ([1]; spraying solution 5 ppm),Average infested area (cm2) ([1]; spraying solution 10 ppm),Mortality (%) After 1 day ([1]; spraying solution 10 ppm),Mortality (%) After 3 days ([1]; spraying solution 10 ppm),Mortality (%) After 7 days ([1]; spraying solution 10 ppm),Average infested area (cm2) ([1]; spraying solution 20 ppm),Mortality (%) After 1 day ([1]; spraying solution 20 ppm),Mortality (%) After 3 days ([1]; spraying solution 20 ppm),Average infested area (cm2) ([1]; spraying solution 40 ppm),Mortality (%) After 1 day ([1]; spraying solution 40 ppm),Mortality (%) After 1 day (Pine Caterpillar Larva; spraying solution 100 ppm),Mortality (%) After 3 days (Pine Caterpillar Larva; spraying solution 100 ppm),Mortality (%) After 7 days (Pine Caterpillar Larva; spraying solution 100 ppm),Mortality (%) After 1 day (Pine Caterpillar Larva; spraying solution 200 ppm),Mortality (%) After 3 days (Pine Caterpillar Larva; spraying solution 200 ppm),Mortality (%) After 1 day (Fall Webworm Larva; spraying solution 100 ppm),Mortality (%) After 3 days (Fall Webworm Larva; spraying solution 100 ppm),also measured
"CN1COCN(Cc2cnc(Cl)s2)/C1=N\[N+](=O)[O-] [Thiamethoxam, thiamethoxam]",1.8 cm2,10%,60%,100%,0.5 cm2,70%,80%,100%,0.4 cm2,80%,100%,0.3 cm2,100%,50%,80%,100%,80%,100%,20%,80%,Mortality (%) After 1 day (Pine Caterpillar Larva; spraying solution 20 ppm): 10%; Mortality (%) After 3 days (Pine Caterpillar Larva; spraying solution 20 ppm): 40%; Mortality (%) After 7 days (Pine Caterpillar Larva; spraying solution 20 ppm): 50%; Mortality (%) After 1 day (Pine Caterpillar Larva; spraying solution 50 ppm): 20%; Mortality (%) After 3 days (Pine Caterpillar Larva; spraying solution 50 ppm): 60%; Mortality (%) After 7 days (Pine Caterpillar Larva; spraying solution 50 ppm): 80%; Mortality (%) After 1 day (Fall Webworm Larva; spraying solution 50 ppm): 0%; Mortality (%) After 3 days (Fall Webworm Larva; spraying solution 50 ppm): 30%; Mortality (%) After 7 days (Fall Webworm Larva; spraying solution 50 ppm): 50%; Mortality (%) After 7 days (Fall Webworm Larva; spraying solution 100 ppm): 80%; Mortality (%) After 1 day (Fall Webworm Larva; spraying solution 200 ppm): 30%; Mortality (%) After 3 days (Fall Webworm Larva; spraying solution 200 ppm): 90%; Mortality (%) After 7 days (Fall Webworm Larva; spraying solution 200 ppm): 100%; Mortality (%) After 1 day (Fall Webworm Larva; spraying solution 300 ppm): 80%; Mortality (%) After 3 days (Fall Webworm Larva; spraying solution 300 ppm): 100%
"COP(=S)(OC)Oc1ccc([N+](=O)[O-])c(C)c1 [Fenitrothion, fenitrothion]",23.3 cm2,10%,10%,10%,8.6 cm2,0%,50%,80%,2.4 cm2,20%,70%,1.6 cm2,90%,10%,10%,20%,30%,60%,0%,10%,Mortality (%) After 7 days ([1]; spraying solution 20 ppm): 100%; Mortality (%) After 3 days ([1]; spraying solution 40 ppm): 100%; Mortality (%) After 7 days (Pine Caterpillar Larva; spraying solution 200 ppm): 60%; Mortality (%) After 1 day (Pine Caterpillar Larva; spraying solution 500 ppm): 80%; Mortality (%) After 3 days (Pine Caterpillar Larva; spraying solution 500 ppm): 100%; Mortality (%) After 1 day (Pine Caterpillar Larva; spraying solution 1000 ppm): 100%; Mortality (%) After 7 days (Fall Webworm Larva; spraying solution 100 ppm): 20%; Mortality (%) After 1 day (Fall Webworm Larva; spraying solution 200 ppm): 30%; Mortality (%) After 3 days (Fall Webworm Larva; spraying solution 200 ppm): 60%; Mortality (%) After 7 days (Fall Webworm Larva; spraying solution 200 ppm): 70%; Mortality (%) After 1 day (Fall Webworm Larva; spraying solution 500 ppm): 80%; Mortality (%) After 3 days (Fall Webworm Larva; spraying solution 500 ppm): 100%; Mortality (%) After 1 day (Fall Webworm Larva; spraying solution 1000 ppm): 100%

# Reference: patent publication US8999359B2, “Composition that prevents damage to trees by harmful insects and a prevention method thereof” (Syngenta Crop Protection, Inc., priority 2004, dated 2015)
